Paper PMC8972069 (Nuclear medicine and biology, 2020)

Columns and labels:
[1] = target: T1, human recombinant S1PR4 lysophospholipid receptor membrane (Homo sapiens, UniProt O95977); test: [^32P]S1P competitive binding assay, S1PR4
T1 sequence (O95977 1-384): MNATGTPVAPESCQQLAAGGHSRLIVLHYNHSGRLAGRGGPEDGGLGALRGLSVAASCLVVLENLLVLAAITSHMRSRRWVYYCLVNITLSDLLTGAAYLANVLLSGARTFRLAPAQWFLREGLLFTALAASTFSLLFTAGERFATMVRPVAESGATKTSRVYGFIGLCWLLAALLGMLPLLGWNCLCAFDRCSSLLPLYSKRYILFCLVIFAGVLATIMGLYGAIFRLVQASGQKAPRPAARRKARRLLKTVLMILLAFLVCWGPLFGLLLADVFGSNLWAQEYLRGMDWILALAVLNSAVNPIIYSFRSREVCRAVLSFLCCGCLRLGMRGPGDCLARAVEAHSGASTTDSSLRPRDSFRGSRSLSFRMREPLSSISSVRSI

[2] = target: Human recombinant S1PR5 lysophospholipid receptor membrane (Homo sapiens, UniProt Q9H228); test: [^32P]S1P competitive binding assay, S1PR5
Human recombinant S1PR5 lysophospholipid receptor membrane, sequence (Q9H228 whole entry): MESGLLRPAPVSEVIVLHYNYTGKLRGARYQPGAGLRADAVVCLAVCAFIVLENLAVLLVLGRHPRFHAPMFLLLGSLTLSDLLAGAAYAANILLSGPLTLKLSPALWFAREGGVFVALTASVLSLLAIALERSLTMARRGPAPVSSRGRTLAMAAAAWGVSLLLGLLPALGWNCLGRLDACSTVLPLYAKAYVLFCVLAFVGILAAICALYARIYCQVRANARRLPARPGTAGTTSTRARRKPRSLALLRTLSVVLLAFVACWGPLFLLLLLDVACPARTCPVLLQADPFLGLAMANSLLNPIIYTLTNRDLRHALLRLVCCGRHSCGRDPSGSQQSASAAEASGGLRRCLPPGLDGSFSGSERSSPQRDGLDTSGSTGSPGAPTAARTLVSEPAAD

[3] = target: Human recombinant S1PR1 lysophospholipid receptor membrane (Homo sapiens, UniProt P21453); test: [^32P]S1P competitive binding assay, S1PR1
Human recombinant S1PR1 lysophospholipid receptor membrane, sequence (P21453 whole entry): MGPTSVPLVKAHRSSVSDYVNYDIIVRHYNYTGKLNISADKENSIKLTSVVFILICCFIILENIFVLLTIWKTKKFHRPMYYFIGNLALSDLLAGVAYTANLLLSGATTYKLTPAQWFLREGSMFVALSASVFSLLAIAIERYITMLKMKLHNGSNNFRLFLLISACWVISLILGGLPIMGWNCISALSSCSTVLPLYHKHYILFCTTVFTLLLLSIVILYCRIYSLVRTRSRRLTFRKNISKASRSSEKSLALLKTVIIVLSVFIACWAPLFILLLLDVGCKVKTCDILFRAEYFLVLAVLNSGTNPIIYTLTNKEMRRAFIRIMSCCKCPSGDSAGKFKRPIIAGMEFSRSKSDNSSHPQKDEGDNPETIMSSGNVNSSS

[4] = target: Human recombinant S1PR3 lysophospholipid receptor membrane (Homo sapiens, UniProt Q99500); test: [^32P]S1P competitive binding assay, S1PR3
Human recombinant S1PR3 lysophospholipid receptor membrane, sequence (Q99500 whole entry): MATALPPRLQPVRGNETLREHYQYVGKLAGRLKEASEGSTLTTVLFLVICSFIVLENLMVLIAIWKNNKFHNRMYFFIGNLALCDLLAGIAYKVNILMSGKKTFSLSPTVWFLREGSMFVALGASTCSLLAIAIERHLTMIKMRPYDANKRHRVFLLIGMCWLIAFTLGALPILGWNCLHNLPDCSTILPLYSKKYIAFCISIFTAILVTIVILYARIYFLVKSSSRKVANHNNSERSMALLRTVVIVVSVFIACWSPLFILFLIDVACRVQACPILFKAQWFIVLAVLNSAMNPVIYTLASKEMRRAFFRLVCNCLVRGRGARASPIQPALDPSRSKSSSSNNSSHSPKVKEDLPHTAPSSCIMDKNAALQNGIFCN

Measured: IC50

COc1ccc(NC(=O)Cn2c(=O)c3ccccc3n(CC(=O)Nc3cc(I)c(OC)cc3OC)c2=O)cc1 [TZ6544, N-(5-iodo-2,4-dimethoxyphenyl)-2-(3-(2-((4-methoxyphenyl)amino)-2-oxoethyl)-2,4-dioxo-3,4-dihydroquinazolin-1(2H)-yl)acetamide]
> 1000 nM: all assays above
